Like-named read-outs stand apart in the source and are kept apart here.
Assays:
BCL2 WT = BCL2 WT (Homo sapiens (Human), UniProt P10415); test: TR-FRET competitive binding assay, BCL2 WT
Procedure, shortened: (§1)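 Terbium-labelled N-terminal Halo-fusion BCL2 or BCLXL (E. coli), 0.5 nM, competed against fluorescein-labelled PUMA peptide (2 or 20 nM) for 2 h at 23° C in 50 mM Hepes pH 7.5, 150 mM NaCl, 5% DMSO. TR-FRET 520/495 nm ratio gave IC50 by four-parameter fit; Ki derived from IC50.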

BCL2 G101V [1] = target: BCL2 G101V (Homo sapiens, UniProt P10415, G101V); test: TR-FRET competitive binding assay, BCL2 G101V; settings: BCL2 G101V; Ki determined from IC50; read-out: TR_FRET EKI_Bcl2 G101V
Procedure, shortened: as §1

BCL2 G101V [2] = test: TR-FRET competitive binding assay, BCL2 G101V; set-up: species or system human; settings: for TR_FRET EKI G101V/WT selectivty ratio: ratio Ki BCL2 G101V / Ki BCL2 WT
Procedure, shortened: as §1

BCL2 D103Y = BCL2 D103Y (Homo sapiens, UniProt P10415, D103Y); test: TR-FRET competitive binding assay, BCL2 D103Y; settings: Ki determined from IC50, read-out: TR_FRET EKI_Bcl2 D103Y
Procedure, shortened: as §1

BCL2 F104I = BCL2 F104I (Homo sapiens, UniProt P10415, F104I); test: TR-FRET competitive binding assay, BCL2 F104I; settings: Ki determined from IC50, read-out: TR_FRET EKI_Bcl2 F104I
Procedure, shortened: as §1

BCL2 D111A = BCL2 D111A (Homo sapiens, UniProt P10415, D111A); test: TR-FRET competitive binding assay, BCL2 D111A; settings: Ki determined from IC50, read-out: TR_FRET EKI_Bcl2 D111A
Description: The relative binding potency of each compound was determined in a competitive binding assay using time resolved-fluorescence resonance energy transfer (TR-FRET). The method utilised a fluorescein labelled peptide derived from PUMA (5Flu-Ahx-[…]-NH2 wherein Ahx means 6-hexanoic acid monomer and the amino acid sequence is referred to as SEQ ID:01) which binds to a terbium labelled BCL2 or BCLXL protein. The degree of binding or corresponding compound inhibition can be quantified by the TR-FRET signal between the terbium donor and fluorescein acceptor.
The human BCL2_wild-type (also named BCL2_wt), BCL2_G101V mutant and BCLXL_wild-type were E. coli expressed as a N-terminal Halo-fusion proteins and singly labelled with Terbium on the Halo protein to afford the following amino acid sequences:
wherein the BCL2(1-207) sequence corresponds to UniProtKB® primary accession number P10415 and the BCLXL(2-196) sequence corresponds to UniProtKB® primary accession number Q07817-1.
The assay was performed in a 40 μL volume in white 384-standard well plates (Corning #3574). An 11-point serial dilution of each compound was prepared in DMSO and transferred directly to plate followed by addition of fluorescein labelled peptide and lastly protein. Final assay conditions were 0.5 nM BCL2_wt, BCL2_G101V, BCL2_D103Y, BCL2_F104I, BCL2_D111A or BCLXL_wt, 2 or 20 nM fluorescein labelled peptide, 50 mM Hepes pH 7.5, 150 mM NaCl, 0.5 mM TCEP (Tris(2-carboxyethyl)phosphine), 0.05% Tween 20, 5% DMSO. The mixture was incubated for 2 hours at 23° C.
TR-FRET measurements were performed on a Biotek Synergy Neo plate reader. TR-FRET was measured by excitation of the Terbium-donor at 340 nm and subsequent (delay time 100 μs) measurement of terbium and fluorescein emission at 495 nm and 520 nm, respectively, over a collection time of 300 μs. The TR-FRET signal was calculated as the emission-ratio at 520 nm over 495 nm.
The TR-FRET ratio readout for test compounds was normalized against 0% inhibition controls wells and 100% inhibition control wells. Test compound potency (IC50) was estimated by nonlinear regression using the sigmoidal dose-response (variable slope) using Xlfit 4 (IDBS, Guildford, Surrey, UK, model 205). Were the IC50 could not be determined the % inhibition at the highest tested concentration is given.
y=(A+((B−A)/(1+((C/x)^D))))
where y is the normalized TR-TRET ratio measurement for a given concentration of test compound, x is the concentration of test compound, A is the estimated efficacy (% inhibition) at infinite compound dilution, and B is the maximal efficacy (% inhibition). C is the IC50 value and D is the Hill slope coefficient.
The K1 values were determined from the IC50 values according to Cer et al, Nucleic Acids Res, 2009, July 1; 37 (WebServer issue): W441-W445.

BCLXL WT = BCLXL WT (Homo sapiens (Human), UniProt Q07817); test: TR-FRET competitive binding assay, BCLXL WT; settings: for Ki: BCLXL WT, Ki determined from IC50, read-out: TR_FRET EKI BclxL; for TR_FRET EKI BCLxL/WT selectivty ratio: ratio Ki BCLxL / Ki BCL2 WT
Sequence of BCLXL WT (Q07817 other isoform, or with tags, fused parts or gaps): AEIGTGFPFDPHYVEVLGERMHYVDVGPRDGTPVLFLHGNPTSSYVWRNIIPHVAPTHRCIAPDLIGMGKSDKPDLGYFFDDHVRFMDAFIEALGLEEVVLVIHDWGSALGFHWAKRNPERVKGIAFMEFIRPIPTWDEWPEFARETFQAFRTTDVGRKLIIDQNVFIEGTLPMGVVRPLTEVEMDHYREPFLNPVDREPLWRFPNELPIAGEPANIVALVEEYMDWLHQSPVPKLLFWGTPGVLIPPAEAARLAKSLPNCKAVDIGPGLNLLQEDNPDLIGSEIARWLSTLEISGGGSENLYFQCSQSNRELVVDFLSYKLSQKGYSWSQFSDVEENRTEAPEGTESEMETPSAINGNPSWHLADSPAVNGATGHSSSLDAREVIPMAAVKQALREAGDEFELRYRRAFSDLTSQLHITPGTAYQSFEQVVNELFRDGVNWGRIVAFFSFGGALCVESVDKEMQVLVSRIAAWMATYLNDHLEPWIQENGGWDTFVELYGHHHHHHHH
Procedure, shortened: as §1

KMS-12-PE Bcl-2 WT = test: In vitro cytotoxicity CellTiter-Glo 48 h, KMS-12-PE Bcl-2 WT; type: cell-based; settings: Homo sapiens, KMS-12-PE, C50 = concentration needed to reach 50% of the cellular viability
Procedure, shortened: (§2)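 KMS-12-PE myeloma cells were lentivirally transduced with wild-type or G101V-mutant Bcl-2 and sorted by TagRFP. They were exposed to compounds as 11-point dose responses for 48 h at 37 °C, 5% CO2. Viability was read by CellTiter-Glo ATP luminescence, and C50 was the concentration giving 50% viability.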

KMS-12-PE Bcl-2 G101V = test: In vitro cytotoxicity CellTiter-Glo 48 h, KMS-12-PE Bcl-2 G101V; type: cell-based; settings: for Ratio (G101V/WT): C50 KMS-12-PE Bcl-2 G101V over C50 KMS-12-PE Bcl-2 WT; for IC50: Homo sapiens, KMS-12-PE, 48 h, CellTiter-Glo, C50 = concentration needed to reach 50% of the cellular viability
Procedure, shortened: as §2

[3] = Ki determined from IC50, read-out: TR_FRET EKI_Bcl2 WT

| SMILES | Ki (BCL2 WT; [3]) [nM] | Ki (BCL2 G101V [1]) [nM] | TR_FRET EKI G101V/WT selectivty ratio (BCL2 G101V [2]) | Ki (BCL2 D103Y) [nM] | Ki (BCL2 F104I) [nM] | Ki (BCL2 D111A) [nM] | Ki (BCLXL WT) [nM] | TR_FRET EKI BCLxL/WT selectivty ratio (BCLXL WT) | Ki (BCL2 WT; Ki determined from IC50, read-out: TR_FRET EKI_Bcl2) [nM] | TR_FRET EKI G101V/WT selectivty (BCL2 G101V [2]; ratio of Ki BCL2 G101V to BCL2 WT) | TR_FRET EKI BCLxL/WT selectivty (BCLXL WT; ratio of Ki BCLxL to BCL2 WT) | IC50 (KMS-12-PE Bcl-2 WT) [µM] | Ratio (G101V/WT) (KMS-12-PE Bcl-2 G101V) | IC50 (KMS-12-PE Bcl-2 G101V) [µM] |
| --- | --- | --- | --- | --- | --- | --- | --- | --- | --- | --- | --- | --- | --- | --- |
| Cc1c(N(C(=O)c2cc(-c3cc4c(cc3C(=O)N3Cc5ccccc5C[C@H]3CN3CCCCC3)CN(C(=O)Cc3ccc(OCCN5CCOCC5)cc3F)CC4)n3ccccc23)c2ccc(O)cc2)cc(C#N)n1C [Example 136, N-(5-cyano-1,2-dimethyl-pyrrol-3-yl)-3-[2-[2-[2-fluoro-4-(2-morpholinoethoxy)phenyl]acetyl]-7-[(3S)-3-(1-piperidylmethyl)-3,4-dihydro-1H-isoquinoline-2-carbonyl]-3,4-dihydro-1H-isoquinolin-6-yl]-N-(4-hydroxyphenyl)indolizine-1-carboxamide] | 0.13 | 0.6 | 4.2 | 0.32 | 0.17 | 0.35 | 2.3 | 17.7 | – | – | – | 0.0037 | 3.22 | 0.0118 |
| Cc1c(C(=O)N(c2ccc(O)cc2)c2cnn(C(F)F)c2)cc(-c2cc3c(cc2C(=O)N2Cc4ccccc4C[C@H]2C)CN(C(=O)Cc2ccc(OCCN4CCOCC4)cc2)CC3)n1C [Example 228, N-[1-(difluoromethyl)pyrazol-4-yl]-5-[2-[2-[4-(2-morpholinoethoxy)phenyl]acetyl]-7-[(3R)-3-methyl-3,4-dihydro-1H-isoquinoline-2-carbonyl]-3,4-dihydro-1H-isoquinolin-6-yl]-N-(4-hydroxyphenyl)-1,2-dimethyl-pyrrole-3-carboxamide] | – | 0.84 | – | 0.21 | 1.6 | 0.2 | 14.9 | – | 0.06 | 14 | 248.3 | 0.0146 | 11.0 | 0.161 |
| Cc1c(N(C(=O)c2cc(-c3cc4c(cc3C(=O)N3Cc5ccccc5C[C@H]3C)CN(C(=O)Cc3ccc(OCCN5CCC(F)(F)C5)cc3)CC4)n(C)c2C)c2ccc(O)cc2)cc(C#N)n1C [Example 50, N-(5-cyano-1,2-dimethyl-1H-pyrrol-3-yl)-5-[2-(2-{4-[2-(3,3-difluoropyrrolidin-1-yl)ethoxy]phenyl}acetyl)-7-[(3R)-3-methyl-1,2,3,4-tetrahydroisoquinoline-2-carbonyl]-1,2,3,4-tetrahydroisoquinolin-6-yl]-N-(4-hydroxyphenyl)-1,2-dimethyl-1H-pyrrole-3-carboxamide] | 0.26 | 0.6 | 2.3 | 0.58 | 4.66 | 1.46 | 5.8 | 22.3 | – | – | – | 0.0052 | 6.53 | 0.0341 |

These reach a lower Ki (BCL2 G101V [1]). Values come first.

| Ki (BCL2 WT; [3]) [nM] | Ki (BCL2 G101V [1]) [nM] | TR_FRET EKI G101V/WT selectivty ratio (BCL2 G101V [2]) | Ki (BCL2 D103Y) [nM] | Ki (BCL2 F104I) [nM] | Ki (BCL2 D111A) [nM] | Ki (BCLXL WT) [nM] | TR_FRET EKI BCLxL/WT selectivty ratio (BCLXL WT) | Ki (BCL2 WT; Ki determined from IC50, read-out: TR_FRET EKI_Bcl2) [nM] | TR_FRET EKI G101V/WT selectivty (BCL2 G101V [2]; ratio of Ki BCL2 G101V to BCL2 WT) | TR_FRET EKI BCLxL/WT selectivty (BCLXL WT; ratio of Ki BCLxL to BCL2 WT) | SMILES | IC50 (KMS-12-PE Bcl-2 WT) [µM] | Ratio (G101V/WT) (KMS-12-PE Bcl-2 G101V) | IC50 (KMS-12-PE Bcl-2 G101V) [µM] |
| --- | --- | --- | --- | --- | --- | --- | --- | --- | --- | --- | --- | --- | --- | --- |
| 0.05 | 0.2 | 4.3 | 0.11 | 0.22 | 0.12 | 1.6 | 32.7 | – | – | – | Cc1c(N(C(=O)c2cc(-c3cc4c(cc3C(=O)N3Cc5ccccc5C[C@H]3CN3CCCCC3)CN(C(=O)Cc3ccc(OCCN(C)C5COC5)cc3F)CC4)n(C)c2C)c2ccc(O)cc2)cc(C#N)n1C [Example 105, N-(5-cyano-1,2-dimethyl-1H-pyrrol-3-yl)-5-{2-[2-(2-fluoro-4-{2-[methyl(oxetan-3-yl)amino]ethoxy}phenyl)acetyl]-7-[(3S)-3-[(piperidin-1-yl)methyl]-1,2,3,4-tetrahydroisoquinoline-2-carbonyl]-1,2,3,4-tetrahydroisoquinolin-6-yl}-N-(4-hydroxyphenyl)-1,2-dimethyl-1H-pyrrole-3-carboxamide] | 0.0054 | 5.28 | 0.0285 |
| 0.18 | 0.3 | 1.8 | 0.62 | 0.76 | 0.36 | 3 | 16.7 | – | – | – | Cc1c(N(C(=O)c2cc(-c3cc4c(cc3C(=O)N3Cc5ccccc5C[C@H]3C)CN(C(=O)Cc3ccc(OCCN5C[C@H](C)O[C@@H](C)C5)cc3)CC4)n(C)c2C)c2ccc(O)cc2)cc(C#N)n1C (single isomer, unassigned) [Example 42, N-(5-cyano-1,2-dimethyl-1H-pyrrol-3-yl)-5-{2-[2-(4-{2-[(2R or S,6R or S)-2,6-dimethylmorpholin-4-yl]ethoxy}phenyl)acetyl]-7-[(3R)-3-methyl-1,2,3,4-tetrahydroisoquinoline-2-carbonyl]-1,2,3,4-tetrahydroisoquinolin-6-yl}-N-(4-hydroxyphenyl)-1,2-dimethyl-1H-pyrrole-3-carboxamide] | 0.0046 | 3.77 | 0.0175 |
| 0.06 | 0.3 | 5.5 | 0.47 | 0.38 | 0.09 | 2.4 | 38.7 | – | – | – | Cc1c(C(=O)N(c2ccc(O)cc2)c2cnc3c(cnn3C)c2)cc(-c2cc3c(cc2C(=O)N2Cc4ccccc4C[C@H]2C)CN(C(=O)Cc2ccc(OCCN4CCOCC4)cc2)CC3)n1C [Example 62, N-(4-hydroxyphenyl)-1,2-dimethyl-5-(7-{[(3R)-3-methyl-3,4-dihydro-1H-isoquinolin-2-yl]carbonyl}-2-(2-{4-[2-(morpholin-4-yl)ethoxy]phenyl}acetyl)-3,4-dihydro-1H-isoquinolin-6-yl)-N-{1-methylpyrazolo[3,4-b]pyridin-5-yl}pyrrole-3-carboxamide] | 0.0118 | 7.56 | 0.0892 |

Source: patent US20250179047A1, “5-[7-(3,4-DIHYDRO-1H-ISOQUINOLINE-2-CARBONYL)-1,2,3,4 TETRAHYDROISOQUINOLIN-6-YL]-1H-PYRROLE-3-CARBOXAMIDE DERIVATIVES, PHARMACEUTICAL COMPOSITIONS CONTAINING THEM AND THEIR USES AS PRO-APOPTOTIC AGENTS” (LES LABORATOIRES SERVIER, priority 2022, published 2025)
